Converted amounts (≈) assume the structure as drawn.
Tests used:
Assay type in all cases: cell-based
E. coli ATCC25922 = assay: Bacterial growth minimal inhibitory concentration, E. coli ATCC25922; conditions: quinolone-sensitive strain, cation-adjusted Mueller-Hinton Broth, microdilution; for MIC: Escherichia coli, ATCC25922
Protocol: (§1) Minimal Inhibitory Concentrations (MICs; mg/L) were determined in cation-adjusted Mueller-Hinton Broth by a microdilution method following the description given in “Methods for Dilution Antimicrobial Susceptibility Tests for Bacteria that Grow Aerobically”, Approved standard, 7th ed., Clinical and Laboratory Standards Institute (CLSI) Document M7-A7, Wayne, Pa., USA (2006).
(§2) All Example compounds were tested against several Gram-positive and Gram-negative bacteria. […] K. pneumoniae A-651 is a multiply-resistant (in particular quinolone-resistant) strain, while E. coli ATCC25922 and P. aeruginosa ATCC27853 are quinolone-sensitive strains.

P. aeruginosa ATCC27853 = assay: Bacterial growth minimal inhibitory concentration, P. aeruginosa ATCC27853; conditions: quinolone-sensitive strain, cation-adjusted Mueller-Hinton Broth, microdilution; for MIC: Pseudomonas aeruginosa, ATCC27853
Protocol: as §1, §2

K. pneumoniae A-651 = assay: Bacterial growth minimal inhibitory concentration, K. pneumoniae A-651; conditions: cation-adjusted Mueller-Hinton Broth, microdilution; for MIC: Klebsiella pneumoniae, A651, multiply-resistant (in particular quinolone-resistant) strain; for MIC for K. Pneumoniae A-651: multiply-resistant (in particular quinolone-resistant) strain
Protocol: as §1, §2

wild-type E. coli A-1261 = assay: Bacterial growth minimal inhibitory concentration of prodrugs, wild-type E. coli A-1261, with or without alkaline phosphatase or esterase; conditions: for MIC for E. coli A-1261 In the absence of alkaline phosphatase or esterase: no alkaline phosphatase or esterase
Protocol: as §1
The compounds of Examples 6 and 21 were tested against wild-type E. coli A-1261 in the absence of alkaline phosphatase or esterase, in the presence of an alkaline phosphatase and in the presence of an esterase. The corresponding antibacterial test results are given in Table 2 hereafter (MICs in mg/L).

## CN1CCC(F)(C#CC#Cc2ccc3nc(CC[C@](C)(C(=O)NO)S(C)(=O)=O)sc3c2)C1 (mixture of isomers) [Example 14, (2R)-4-(6-(((3RS)-3-fluoro-1-methylpyrrolidin-3-yl)buta-1,3-diyn-1-yl)benzo[d]thiazol-2-yl)-N-hydroxy-2-methyl-2-(methylsulfonyl)butanamide]
E. coli ATCC25922
  MIC: 0.063 µg/mL
P. aeruginosa ATCC27853
  MIC: 1 µg/mL
K. pneumoniae A-651
  MIC: 0.25 µg/mL

## C[C@@](CCc1nc2ccc(C#CC#CC3CN(C4COC4)C3)cc2s1)(C(=O)NO)S(C)(=O)=O [Example 1, (2R)—N-hydroxy-2-methyl-2-(methylsulfonyl)-4-(6-((1-(oxetan-3-yl)azetidin-3-yl)buta-1,3-diyn-1-yl)benzo[d]thiazol-2-yl)butanamide]
E. coli ATCC25922
  MIC: 0.25 µg/mL (≈ 0.513 µM)
P. aeruginosa ATCC27853
  MIC: 1 µg/mL (≈ 2.05 µM)
K. pneumoniae A-651
  MIC: 0.25 µg/mL (≈ 0.513 µM)

## C[C@@](CCc1nc2ccc(C#CC#CCOC(=O)N3CCC(O)CC3)cc2s1)(C(=O)NO)S(C)(=O)=O [Example 2, (2R)-5-(2-(4-(hydroxyamino)-3-methyl-3-(methylsulfonyl)-4-oxobutyl)benzo[d]thiazol-6-yl)penta-2,4-diyn-1-yl 4-hydroxypiperidine-1-carboxylate]
E. coli ATCC25922
  MIC for E. coli ATCC25922: 0.25 µg/mL
P. aeruginosa ATCC27853
  MIC for P. aeruginosa ATCC27853: 1 µg/mL
K. pneumoniae A-651
  MIC for K. Pneumoniae A-651: 0.5 µg/mL

## C[C@@](CCc1nc2ccc(C#CC#CCOC(=O)N3CC(O)C3)cc2s1)(C(=O)NO)S(C)(=O)=O [Example 3, (2R)-5-(2-(4-(hydroxyamino)-3-methyl-3-(methylsulfonyl)-4-oxobutyl)benzo[d]thiazol-6-yl)penta-2,4-diyn-1-yl 3-hydroxyazetidine-1-carboxylate]
E. coli ATCC25922
  MIC for E. coli ATCC25922: 0.5 µg/mL
P. aeruginosa ATCC27853
  MIC for P. aeruginosa ATCC27853: 4 µg/mL
K. pneumoniae A-651
  MIC for K. Pneumoniae A-651: 1 µg/mL

## CN1CC(C#CC#Cc2ccc3nc(CC[C@](C)(C(=O)NO)S(C)(=O)=O)sc3c2)C1 [Example 4, (2R)—N-hydroxy-2-methyl-4-(6-((1-methylazetidin-3-yl)buta-1,3-diyn-1-yl)benzo[d]thiazol-2-yl)-2-(methylsulfonyl)butanamide]
E. coli ATCC25922
  MIC: 0.25 µg/mL (≈ 0.561 µM)
P. aeruginosa ATCC27853
  MIC: 1 µg/mL (≈ 2.24 µM)
K. pneumoniae A-651
  MIC: 0.5 µg/mL (≈ 1.12 µM)

## C[C@@](CCc1nc2ccc(C#CC#CC3CN(CCO)C3)cc2s1)(C(=O)NO)S(C)(=O)=O [Example 5, (2R)—N-hydroxy-4-(6-((1-(2-hydroxyethyl)azetidin-3-yl)buta-1,3-diyn-1-yl)benzo[d]thiazol-2-yl)-2-methyl-2-(methylsulfonyl)butanamide]
E. coli ATCC25922
  MIC: 1 µg/mL (≈ 2.1 µM)
P. aeruginosa ATCC27853
  MIC: 1 µg/mL (≈ 2.1 µM)
K. pneumoniae A-651
  MIC: 0.5 µg/mL (≈ 1.05 µM)

## C[C@@](CCc1nc2ccc(C#CC#CC3CN(CCOP(=O)(O)O)C3)cc2s1)(C(=O)NO)S(C)(=O)=O [Example 6, (R)-2-(3-((2-(4-(hydroxyamino)-3-methyl-3-(methylsulfonyl)-4-oxobutyl)benzo[d]thiazol-6-yl)buta-1,3-diyn-1-yl)azetidin-1-yl)ethyl dihydrogen phosphate]
wild-type E. coli A-1261
  MIC for E. coli A-1261 In the presence of an alkaline phosphatase (2 i.U./mL): 0.5 µg/mL
  MIC for E. coli A-1261 In the presence of an esterase (10 i.U./mL): >16 µg/mL
  MIC for E. coli A-1261 In the absence of alkaline phosphatase or esterase: >16 µg/mL

## C[C@@](CCc1nc2ccc(C#CC#C[C@@H]3CC[C@H]3CO)cc2s1)(C(=O)NO)S(C)(=O)=O [Example 7, (2R)—N-hydroxy-4-(6-(((1R,2R)-2-(hydroxymethyl)cyclobutyl)buta-1,3-diyn-1-yl)benzo[d]thiazol-2-yl)-2-methyl-2-(methylsulfonyl)butanamide]
E. coli ATCC25922
  MIC: 0.125 µg/mL (≈ 0.271 µM)
P. aeruginosa ATCC27853
  MIC: 1 µg/mL (≈ 2.17 µM)
K. pneumoniae A-651
  MIC: 0.25 µg/mL (≈ 0.543 µM)

## CN1CC[C@H]1C#CC#Cc1ccc2nc(CC[C@](C)(C(=O)NO)S(C)(=O)=O)sc2c1 [Example 8, (2R)—N-hydroxy-2-methyl-4-(6-(((2S)-1-methylazetidin-2-yl)buta-1,3-diyn-1-yl)benzo[d]thiazol-2-yl)-2-(methylsulfonyl)butanamide]
E. coli ATCC25922
  MIC: 0.25 µg/mL (≈ 0.561 µM)
P. aeruginosa ATCC27853
  MIC: 2 µg/mL (≈ 4.49 µM)
K. pneumoniae A-651
  MIC: 1 µg/mL (≈ 2.24 µM)

## C[C@@](CCc1nc2ccc(C#CC#CC3CN(CC4COC4)C3)cc2s1)(C(=O)NO)S(C)(=O)=O [Example 9, (2R)—N-hydroxy-2-methyl-2-(methylsulfonyl)-4-(6-((1-(oxetan-3-ylmethyl)azetidin-3-yl)buta-1,3-diyn-1-yl)benzo[d]thiazol-2-yl)butanamide]
E. coli ATCC25922
  MIC: 0.125 µg/mL (≈ 0.249 µM)
P. aeruginosa ATCC27853
  MIC: 1 µg/mL (≈ 1.99 µM)
K. pneumoniae A-651
  MIC: 0.25 µg/mL (≈ 0.498 µM)

## C[C@@](CCc1nc2ccc(C#CC#CC3CN(CCCO)C3)cc2s1)(C(=O)NO)S(C)(=O)=O [Example 10, (2R)—N-hydroxy-4-(6-((1-(3-hydroxypropyl)azetidin-3-yl)buta-1,3-diyn-1-yl)benzo[d]thiazol-2-yl)-2-methyl-2-(methylsulfonyl)butanamide]
E. coli ATCC25922
  MIC: 0.25 µg/mL (≈ 0.511 µM)
P. aeruginosa ATCC27853
  MIC: 1 µg/mL (≈ 2.04 µM)
K. pneumoniae A-651
  MIC: 0.5 µg/mL (≈ 1.02 µM)

## C[C@@](CCc1nc2ccc(C#CC#CC3CN(C4CC4)C3)cc2s1)(C(=O)NO)S(C)(=O)=O [Example 11, (2R)-4-(6-((1-cyclopropylazetidin-3-yl)buta-1,3-diyn-1-yl)benzo[d]thiazol-2-yl)-N-hydroxy-2-methyl-2-(methylsulfonyl)butanamide]
E. coli ATCC25922
  MIC: 0.063 µg/mL (≈ 0.134 µM)
P. aeruginosa ATCC27853
  MIC: 2 µg/mL (≈ 4.24 µM)
K. pneumoniae A-651
  MIC: 0.125 µg/mL (≈ 0.265 µM)

## C[C@@](CCc1nc2ccc(C#CC#CC3CN(C4CC(O)C4)C3)cc2s1)(C(=O)NO)S(C)(=O)=O (stereo partly drawn) [Example 12, (2R)—N-hydroxy-4-(6-((1-(3-hydroxycyclobutyl)azetidin-3-yl)buta-1,3-diyn-1-yl)benzo[d]thiazol-2-yl)-2-methyl-2-(methylsulfonyl)butanamide]
E. coli ATCC25922
  MIC: 0.125 µg/mL (≈ 0.249 µM)
P. aeruginosa ATCC27853
  MIC: 1 µg/mL (≈ 1.99 µM)
K. pneumoniae A-651
  MIC: 0.25 µg/mL (≈ 0.498 µM)

## C[C@@](CCc1nc2ccc(C#CC#CC3CN(CCF)C3)cc2s1)(C(=O)NO)S(C)(=O)=O [Example 13, (2R)-4-(6-((1-(2-fluoroethyl)azetidin-3-yl)buta-1,3-diyn-1-yl)benzo[d]thiazol-2-yl)-N-hydroxy-2-methyl-2-(methylsulfonyl)butanamide]
E. coli ATCC25922
  MIC: 0.125 µg/mL (≈ 0.262 µM)
P. aeruginosa ATCC27853
  MIC: 1 µg/mL (≈ 2.09 µM)
K. pneumoniae A-651
  MIC: 0.25 µg/mL (≈ 0.523 µM)

## CN1CCC(F)(C#CC#Cc2ccc3nc(CC[C@](C)(C(=O)NO)S(C)(=O)=O)sc3c2)CC1 [Example 15, (2R)-4-(6-((4-fluoro-1-methylpiperidin-4-yl)buta-1,3-diyn-1-yl)benzo[d]thiazol-2-yl)-N-hydroxy-2-methyl-2-(methylsulfonyl)butanamide]
E. coli ATCC25922
  MIC: 0.25 µg/mL (≈ 0.509 µM)
P. aeruginosa ATCC27853
  MIC: 1 µg/mL (≈ 2.03 µM)
K. pneumoniae A-651
  MIC: 0.5 µg/mL (≈ 1.02 µM)

## C[C@@H]1[C@@H](C#CC#Cc2ccc3nc(CC[C@](C)(C(=O)NO)S(C)(=O)=O)sc3c2)CN1C [Example 16, (2R)-4-(6-(((2R,3S)-1,2-dimethylazetidin-3-yl)buta-1,3-diyn-1-yl)benzo[d]thiazol-2-yl)-N-hydroxy-2-methyl-2-(methylsulfonyl)butanamide]
E. coli ATCC25922
  MIC: 0.125 µg/mL (≈ 0.272 µM)
P. aeruginosa ATCC27853
  MIC: 0.5 µg/mL (≈ 1.09 µM)
K. pneumoniae A-651
  MIC: 0.5 µg/mL (≈ 1.09 µM)

## CN1C[C@@H](C#CC#Cc2ccc3nc(CC[C@](C)(C(=O)NO)S(C)(=O)=O)sc3c2)[C@@H]1CO [Example 17, (2R)—N-hydroxy-4-(6-(((2R,3R)-2-(hydroxymethyl)-1-methylazetidin-3-yl)buta-1,3-diyn-1-yl)benzo[d]thiazol-2-yl)-2-methyl-2-(methylsulfonyl)butanamide]
E. coli ATCC25922
  MIC: 0.5 µg/mL (≈ 1.05 µM)
P. aeruginosa ATCC27853
  MIC: 1 µg/mL (≈ 2.1 µM)
K. pneumoniae A-651
  MIC: 1 µg/mL (≈ 2.1 µM)

## CNC1(C#CC#Cc2ccc3nc(CC[C@](C)(C(=O)NO)S(C)(=O)=O)sc3c2)CC1 [Example 18, (2R)—N-hydroxy-2-methyl-4-(6-((1-(methylamino)cyclopropyl)buta-1,3-diyn-1-yl)benzo[d]thiazol-2-yl)-2-(methylsulfonyl)butanamide]
E. coli ATCC25922
  MIC: 0.125 µg/mL (≈ 0.281 µM)
P. aeruginosa ATCC27853
  MIC: 1 µg/mL (≈ 2.24 µM)
K. pneumoniae A-651
  MIC: 0.25 µg/mL (≈ 0.561 µM)

## CN1C[C@@H](C#CC#Cc2ccc3nc(CC[C@](C)(C(=O)NO)S(C)(=O)=O)sc3c2)[C@@H]1CO [Example 19, (2R)—N-hydroxy-4-(6-(((2R,3R)-2-(hydroxymethyl)-1-methylazetidin-3-yl)buta-1,3-diyn-1-yl)benzo[d]thiazol-2-yl)-2-methyl-2-(methylsulfonyl)butanamide]
E. coli ATCC25922
  MIC for E. coli ATCC25922: 0.5 µg/mL
P. aeruginosa ATCC27853
  MIC for P. aeruginosa ATCC27853: 1 µg/mL
K. pneumoniae A-651
  MIC for K. Pneumoniae A-651: 2 µg/mL

## CN1C[C@@H](C#CC#Cc2ccc3nc(CC[C@](C)(C(=O)NO)S(C)(=O)=O)sc3c2)C[C@@H]1CO [Example 20, (2R)—N-hydroxy-4-(6-(((3R,5R)-5-(hydroxymethyl)-1-methylpyrrolidin-3-yl)buta-1,3-diyn-1-yl)benzo[d]thiazol-2-yl)-2-methyl-2-(methylsulfonyl)butanamide]
E. coli ATCC25922
  MIC: 0.5 µg/mL (≈ 1.02 µM)
P. aeruginosa ATCC27853
  MIC: 1 µg/mL (≈ 2.04 µM)
K. pneumoniae A-651
  MIC: 1 µg/mL (≈ 2.04 µM)

## (2R)-2-(3-((4-(5-((1-(3-hydroxypropyl)azetidin-3-yl)buta-1,3-diyn-1-yl)benzo[d]thiazol-2-yl)-2-methyl-2-(methylsulfonyl)butanamido)oxy)-3-oxopropyl)phenyl dihydrogen phosphate [Example 21]
wild-type E. coli A-1261
  MIC for E. coli A-1261 In the presence of an alkaline phosphatase (2 i.U./mL): 0.5 µg/mL
  MIC for E. coli A-1261 In the presence of an esterase (10 i.U./mL): 8 µg/mL
  MIC for E. coli A-1261 In the absence of alkaline phosphatase or esterase: 0.5 µg/mL
